# Laboratory results as given in patent publication US20060121116A1, “Hydrogel for cell separation and method of separating cells” (priority 2003, published 2006).
# System: human peripheral blood leucocytes
# Experiment: Migration capability of neutrophils: fMLP in soft agar under hydrogel layer
# Type: cell-based
# Details: for Number of Cells in Hydrogel of the Invention: 37° C., 3 hours, 10^7 leucocytes applied; for Number of Cells in Soft Agar: microscopically observed
# Method: Soft agar mediums (prepared by dissolving Nacalai Tesque's soft agar powder in a D′MEM (Dulbecco's Modification Eagle's Medium, by GIBCO, containing 10% FCS (Fetal Calf Serum)) having 0.6% of concentration and each containing 0 M, 10^−6 M, 10^−7 M or 10^−8 M of fMLP (N-formyl-methionyl-leucyl-phenylalanine, molecular weight 437.6, chemotactic peptide, produced by Sigma) were prepared at 42° C. Each medium was put into a polystyrene dish (mfd. by SOMILON) having a diameter of 35 mm in an amount of 1 ml (depth of medium, about 1 mm) each, and gelled therein at room temperature. The hydrogel-forming polymer (TGP-5) of the invention obtained in Production Example 7 was sterilized with EOG in the same manner as in Production Example 4. One g of the polymer was dissolved in 9 g of D′MEM medium at 4° C., and this was put on the above-mentioned soft agar gel in an amount of 0.5 ml (depth of the polymer solution, about 0.5 mm) each, and gelled at room temperature. The sol-gel transition temperature of the hydrogel was 18° C. On the hydrogel layer of the invention, a tissue culture insert (mfd. by NUNC) with a filter having a pore size of 8.0 μm was set, and 0.5 ml of a cell suspension containing 10^7 human peripheral blood leucocytes was put into the insert and set in an incubator at 37° C. This was statically set therein at 37° C. for 3 hours, and then the dish was taken out of the incubator. The dish was cooled on ice, the tissue culture insert was removed, and the hydrogel of the invention was converted into a sol state. The hydrogel of the invention that was liquid with cooling with ice was collected, diluted with physiological saline and centrifuged (3000 rpm, 5 minutes). The precipitated cell were re-suspended in 20 μl of physiological saline, and the number of the cell was counted to thereby determine the number of the neutrophils having moved into the hydrogel of the invention. After the hydrogel of the invention was removed, the number of the cell having moved into the soft agar was microscopically observed, and the result is shown in Table 1.
# [1] = fMLP concentration in soft agar 10^−6 M
# [2] = fMLP concentration in soft agar 10^−7 M
# [3] = fMLP concentration in soft agar 10^−8 M
compound,measurement,setting,value
"CSCC[C@H](NC=O)C(=O)N[C@@H](CC(C)C)C(=O)N[C@@H](Cc1ccccc1)C(=O)O [fMLP, N-formyl-methionyl-leucyl-phenylalanine]",Number of Cells in Hydrogel of the Invention,[1],300
same,Number of Cells in Soft Agar,[1],numerous
same,Number of Cells in Hydrogel of the Invention,[2],"17,600"
same,Number of Cells in Soft Agar,[2],many
same,Number of Cells in Hydrogel of the Invention,[3],"4,740"
same,Number of Cells in Soft Agar,[3],a few
